According to patent US5750135A, “Stabilized feed additive and process for the preparation thereof” (Boehringer Ingelheim Vetmedica GmbH, priority 1987, dated 1998):

Assay: Recovery rate of zinc bacitracin in various feeds on storage at ambient temperature
Type: physicochemical
Settings: initial 1,000 ppm = 100%
From the text: Stabilization of the active substance zinc bacitracin is achieved with the process according to the invention.

For zinc bacitracin [Untreated control], the “Recovery rate of zinc bacitracin (ZBA) in %” value (from here on “Recovery rate … in %”) (meal feed 2.16 mineral supplement, 1.5 weeks) was 94.6%, the “Recovery rate … in %” value (meal feed 2.16 mineral supplement, 4 weeks) was 91.2% and the “Recovery rate … in %” value (meal feed 2.16 mineral supplement, 6 weeks) was 68.5%. The “Recovery rate … in %” value (meal feed 2.16 mineral supplement, 8 weeks) was 73.7%, the “Recovery rate … in %” value (meal feed 2.6 complete feed for fattening pigs, 1.5 weeks) was 116.4% and the “Recovery rate … in %” value (meal feed 2.6 complete feed for fattening pigs, 4 weeks) was 107.6%. The “Recovery rate … in %” value (meal feed 2.6 complete feed for fattening pigs, 6 weeks) was 93.1%, the “Recovery rate … in %” value (meal feed 2.6 complete feed for fattening pigs, 8 weeks) was 83.3% and the “Recovery rate … in %” value (meal feed 7.4 complete feed for fattening chicks, 1.5 weeks) was 89.8%. The “Recovery rate … in %” value (meal feed 7.4 complete feed for fattening chicks, 4 weeks) was 82.9%, the “Recovery rate … in %” value (meal feed 7.4 complete feed for fattening chicks, 6 weeks) was 66.2% and the “Recovery rate … in %” value (meal feed 7.4 complete feed for fattening chicks, 8 weeks) was 51.9%. For the same substance, the “Recovery rate … in %” value (meal feed 7.7 complete feed for laying hens, 1.5 weeks) was 96.5%, the “Recovery rate … in %” value (meal feed 7.7 complete feed for laying hens, 4 weeks) was 98.8% and the “Recovery rate … in %” value (meal feed 7.7 complete feed for laying hens, 6 weeks) was 86.4%. The “Recovery rate … in %” value (meal feed 7.7 complete feed for laying hens, 8 weeks) was 80.4%, the “Recovery rate … in %” value (pellet feed 2.6 complete feed for fattening pigs, 1.5 weeks) was 90.5% and the “Recovery rate … in %” value (pellet feed 2.6 complete feed for fattening pigs, 4 weeks) was 75.7%. For the same substance, the “Recovery rate … in %” value (pellet feed 2.6 complete feed for fattening pigs, 6 weeks) was 48.8%, the “Recovery rate … in %” value (pellet feed 2.6 complete feed for fattening pigs, 8 weeks) was 40.8% and the “Recovery rate … in %” value (pellet feed 7.4 complete feed for fattening chicks, 1.5 weeks) was 67.5%. For the same substance, the “Recovery rate … in %” value (pellet feed 7.4 complete feed for fattening chicks, 4 weeks) was 40.2%, the “Recovery rate … in %” value (pellet feed 7.4 complete feed for fattening chicks, 6 weeks) was 24.9% and the “Recovery rate … in %” value (pellet feed 7.4 complete feed for fattening chicks, 8 weeks) was 21.4%. The “Recovery rate … in %” value (pellet feed 7.7 complete feed for laying hens, 1.5 weeks) was 81.5%, the “Recovery rate … in %” value (pellet feed 7.7 complete feed for laying hens, 4 weeks) was 65.8% and the “Recovery rate … in %” value (pellet feed 7.7 complete feed for laying hens, 6 weeks) was 51.1%. The “Recovery rate … in %” value (pellet feed 7.7 complete feed for laying hens, 8 weeks) was 42.4%.
